Reference: BigSolDB 2.1

CC1=CC(=O)c2ccccc2C1=O
solubility (mole fraction)
Details	in 1,2-dichloroethane	in acetone	in acetonitrile	in cyclohexane	in dichloromethane	in isopropanol	in methanol	in methyl acetate	in n-butanol	in n-propanol
278.15 K	0.0879	0.0305	0.016	–	0.111	0.00291	0.00285	0.0427	0.00314	0.00343
283.15 K	0.108	0.0381	0.0197	0.00329	0.128	0.00373	0.00335	0.0481	0.00417	0.00426
288.15 K	0.12	0.0439	0.027	0.00417	0.148	0.0048	0.00396	0.0595	0.0057	0.00564
293.15 K	0.142	0.0534	0.0326	0.00514	0.169	0.00588	0.00484	0.0718	0.00742	0.00685
298.15 K	0.159	0.0669	0.0403	0.00673	0.193	0.00764	0.00606	0.0854	0.00994	0.00838
303.15 K	0.187	0.0809	0.0491	0.00848	0.219	0.0096	0.00709	0.105	0.0127	0.01
308.15 K	0.21	0.0983	0.0609	0.0103	0.247	0.0122	0.00827	0.12	0.0169	0.0122
313.15 K	0.243	0.118	0.0737	0.0131	0.277	0.0153	0.00975	0.148	0.0223	0.0143
